This note sets out measurements from patent US8258134B2, “Pyridazinone glucokinase activators” (Hoffmann-La Roche Inc., priority 2008, dated 2012).

Structures are written as SMILES.

One experiment has as its target T1, Recombinant human liver GK1 (GST-GK) (Homo sapiens, UniProt P35557).
T1 construct: made in house; host or cells: E. coli
T1 sequence (P35557 1-466 isoform P35557-2): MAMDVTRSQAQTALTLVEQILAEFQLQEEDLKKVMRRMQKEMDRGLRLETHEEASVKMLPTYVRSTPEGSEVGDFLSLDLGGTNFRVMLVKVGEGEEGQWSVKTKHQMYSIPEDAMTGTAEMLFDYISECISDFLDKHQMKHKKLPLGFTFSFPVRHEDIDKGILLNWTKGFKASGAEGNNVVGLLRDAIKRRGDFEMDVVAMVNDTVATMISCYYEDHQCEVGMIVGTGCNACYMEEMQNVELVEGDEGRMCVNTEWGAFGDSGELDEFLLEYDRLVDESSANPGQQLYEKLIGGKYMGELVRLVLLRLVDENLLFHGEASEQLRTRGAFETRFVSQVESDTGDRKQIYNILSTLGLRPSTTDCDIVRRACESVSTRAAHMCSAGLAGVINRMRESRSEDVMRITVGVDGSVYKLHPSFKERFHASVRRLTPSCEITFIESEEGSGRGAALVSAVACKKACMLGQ
Nature of the experiment: Glucokinase in vitro assay (G6PDH-coupled NADH generation, OD340). The format is biochemical. Conditions: 30 uM test compound, 5 mM D-glucose. The procedure, abridged: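 Activation readout is SC1.5, the activator concentration raising GK rate (OD340/min) 50% above 10% DMSO controls. The coupled reaction used GST-GK1 from E. coli, 5 mM glucose, 1 mM ATP, 1.8 mM NAD and 25 mM Hepes pH 7.1 at 30° C. Enzyme was added after a 10 min compound pre-incubation.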
With `Cn1ccc(NC(=O)C(CC2CCCC2)n2ncccc2=O)n1` (stereo not shown) [Example 82, 3-Cyclopentyl-N-(1-methyl-1H-pyrazol-3-yl)-2-(6-oxo-6H-pyridazin-1-yl)-propionamide], the “fold activation @ 30 uM” value was 1.3 fold.

Take `Cc1cc(NC(=O)C(CC2CCOCC2)n2ncc(Oc3c(F)cccc3F)cc2=O)nn1CC(C)O` (stereo not shown) [Example 132, 2-[4-(2,6-Difluoro-phenoxy)-6-oxo-6H-pyridazin-1-yl]-N-[1-(2-hydroxy-propyl)-5-methyl-1H-pyrazol-3-yl]-3-(tetrahydro-pyran-4-yl)-propionamide]: the “fold activation @ 30 uM” value was found to be 1.18 fold.

The experiment is the same for the next values; noted with them: 5 mM D-glucose, 30° C., pH 7.1, 10% DMSO.
Take `O=C(Nc1ccn(CCO)n1)[C@@H](CC1CCCC1)n1ncc(Oc2c(F)cccc2F)cc1=O` [Example 60B, (R)-3-Cyclopentyl-2-[4-(2,6-difluoro-phenoxy)-6-oxo-6H-pyridazin-1-yl]-N-[1-(2-hydroxy-ethyl)-1H-pyrazol-3-yl]-propionamide]: the “SC1.5 average (concentration of activator that produced a 50% increase in the activity of GK)” value is 1.942 µM.

For `CC(C)(O)Cn1ccc(NC(=O)C(CC2CCCC2)n2ncc(Oc3cccc(F)c3)cc2=O)n1` (stereo not shown) [Example 18, 3-Cyclopentyl-2-[4-(3-fluoro-phenoxy)-6-oxo-6H-pyridazin-1-yl]-N-[1-(2-hydroxy-2-methyl-propyl)-1H-pyrazol-3-yl]-propionamide], the “SC1.5 average (concentration of activator that produced a 50% increase in the activity of GK)” value came to 0.634 µM.

Regarding `O=C(Nc1nccs1)C(CC1CCCC1)n1ncc2ccccc2c1=O` (stereo not shown) [Example 83, 3-Cyclopentyl-2-(1-oxo-1H-phthalazin-2-yl)-N-thiazol-2-yl-propionamide], the “SC1.5 average (concentration of activator that produced a 50% increase in the activity of GK)” value amounted to 8.783 µM.

In the case of `O=C(Nc1ccn(CCO)n1)[C@H](CC1CCCC1)n1ncc(Oc2c(F)cccc2F)cc1=O` [Example 60A, (S)-3-Cyclopentyl-2-[4-(2,6-difluoro-phenoxy)-6-oxo-6H-pyridazin-1-yl]-N-[1-(2-hydroxy-ethyl)-1H-pyrazol-3-yl]-propionamide], the “SC1.5 average (concentration of activator that produced a 50% increase in the activity of GK)” value came to 0.066 µM.

For `Cc1ccc(F)c(Oc2cnn(C(CC3CCCC3)C(=O)Nc3ccn(C[C@@H](O)CO)n3)c(=O)c2)c1` (stereo partly drawn) [Example 100, 3-Cyclopentyl-N-[1-((R)-2,3-dihydroxy-propyl)-1H-pyrazol-3-yl]-2-[4-(2-fluoro-5-methyl-phenoxy)-6-oxo-6H-pyridazin-1-yl]-propionamide], the “SC1.5 average (concentration of activator that produced a 50% increase in the activity of GK)” value amounted to 0.101 µM.

Consider `CCC(CC)CC(C(=O)Nc1ccn(CCO)n1)n1ncc(Oc2c(F)cccc2F)cc1=O` (stereo not shown) [Example 54, 2-[4-(2,6-Difluoro-phenoxy)-6-oxo-6H-pyridazin-1-yl]-4-ethyl-hexanoic acid [1-(2-hydroxy-ethyl)-1H-pyrazol-3-yl]-amide], for which the “SC1.5 average (concentration of activator that produced a 50% increase in the activity of GK)” value turned out to be 0.544 µM.

For the molecule `CC(C)CC(C(=O)Nc1ccn(C)n1)n1ncc(Oc2cccc3c2ccn3C[C@@H](O)CO)cc1=O` (stereo partly drawn) [Example 113, 2-{4-[1-((R)-2,3-Dihydroxy-propyl)-1H-indol-4-yloxy]-6-oxo-6H-pyridazin-1-yl}-4-methyl-pentanoic acid (1-methyl-1H-pyrazol-3-yl)-amide], the “SC1.5 average (concentration of activator that produced a 50% increase in the activity of GK)” value was found to be 2.308 µM.

With `CC(C)CC(C(=O)Nc1ccn(C[C@@H](O)CO)n1)n1ncc(Oc2cccc3ccccc23)cc1=O` (stereo partly drawn) [Example 109, 4-Methyl-2-[4-(naphthalen-1-yloxy)-6-oxo-6H-pyridazin-1-yl]-pentanoic acid [1-((R)-2,3-dihydroxy-propyl)-1H-pyrazol-3-yl]-amide], the “SC1.5 average (concentration of activator that produced a 50% increase in the activity of GK)” value turned out to be 0.293 µM.

For the molecule `COc1cnn(C(CC2CCCC2)C(=O)Nc2nccs2)c(=O)c1` (stereo not shown) [Example 80, 3-Cyclopentyl-2-(4-methoxy-6-oxo-6H-pyridazin-1-yl)-N-thiazol-2-yl-propionamide], the “SC1.5 average (concentration of activator that produced a 50% increase in the activity of GK)” value is 3.208 µM.

`O=C(Nc1ccn(C[C@@H](O)CO)n1)C(CC1CCOCC1)n1ncc(Oc2c(F)cccc2F)cc1=O` (stereo partly drawn) [Example 62, 2-[4-(2,6-difluoro-phenoxy)-6-oxo-6H-pyridazin-1-yl]-N-[1-((R)-2,3-dihydroxy-propyl)-1H-pyrazol-3-yl]-3-(tetrahydro-pyran-4-yl)-propionamide]: the “SC1.5 average (concentration of activator that produced a 50% increase in the activity of GK)” value was determined as 0.373 µM.

For `CC(C)(O)Cn1ccc(NC(=O)[C@H](CC2CCCC2)n2ncc(Oc3ccccc3C(F)(F)F)cc2=O)n1` [Example 11A, (S)-3-Cyclopentyl-N-[1-(2-hydroxy-2-methyl-propyl)-1H-pyrazol-3-yl]-2-[6-oxo-4-(2-trifluoromethyl-phenoxy)-6H-pyridazin-1-yl]-propionamide], the “SC1.5 average (concentration of activator that produced a 50% increase in the activity of GK)” value came to 0.099 µM.

For the molecule `Cn1ccc(NC(=O)C(CC2CCCC2)n2ncccc2=O)n1` (stereo not shown) [Example 82, 3-Cyclopentyl-N-(1-methyl-1H-pyrazol-3-yl)-2-(6-oxo-6H-pyridazin-1-yl)-propionamide], the “SC1.5 average (concentration of activator that produced a 50% increase in the activity of GK)” value was more than 30 µM.

As for `CC(C)(O)Cn1ccc(NC(=O)C(CC2CCCC2)n2ncc(Oc3ccc(C(F)(F)F)cc3)cc2=O)n1` (stereo not shown) [Example 5, 3-Cyclopentyl-N-[1-(2-hydroxy-2-methyl-propyl)-1H-pyrazol-3-yl]-2-[6-oxo-4-(4-trifluoromethyl-phenoxy)-6H-pyridazin-1-yl]-propionamide], the “SC1.5 average (concentration of activator that produced a 50% increase in the activity of GK)” value was determined as 2.267 µM.

As for `Cc1cc(NC(=O)C(CC2CCOCC2)n2ncc(Oc3c(F)cccc3F)cc2=O)nn1CC(C)O` (stereo not shown) [Example 132, 2-[4-(2,6-Difluoro-phenoxy)-6-oxo-6H-pyridazin-1-yl]-N-[1-(2-hydroxy-propyl)-5-methyl-1H-pyrazol-3-yl]-3-(tetrahydro-pyran-4-yl)-propionamide], the “SC1.5 average (concentration of activator that produced a 50% increase in the activity of GK)” value is more than 30 µM.

`CC(C)CC(C(=O)Nc1ccn(CC(C)(C)O)n1)n1ncc(Oc2ccccc2Cl)cc1=O` (stereo not shown) [Example 134, 2-[4-(2-Chloro-phenoxy)-6-oxo-6H-pyridazin-1-yl]-4-methyl-pentanoic acid [1-(2-hydroxy-2-methyl-propyl)-1H-pyrazol-3-yl]-amide]: the “SC1.5 average (concentration of activator that produced a 50% increase in the activity of GK)” value stood at 0.693 µM.

With `CC(C)(O)Cn1ccc(NC(=O)[C@H](CC2CCCC2)n2ncc(Oc3ccccc3S(C)(=O)=O)cc2=O)n1` [Example 30A, (S)-3-Cyclopentyl-N-[1-(2-hydroxy-2-methyl-propyl)-1H-pyrazol-3-yl]-2-[4-(2-methanesulfonyl-phenoxy)-6-oxo-6H-pyridazin-1-yl]-propionamide], the “SC1.5 average (concentration of activator that produced a 50% increase in the activity of GK)” value was 1.566 µM.

Consider `CC(C)(O)Cn1ccc(NC(=O)[C@@H](CC2CCCC2)n2ncc(Oc3ccccc3C(F)(F)F)cc2=O)n1` [Example 11B, (R)-3-Cyclopentyl-N-[1-(2-hydroxy-2-methyl-propyl)-1H-pyrazol-3-yl]-2-[6-oxo-4-(2-trifluoromethyl-phenoxy)-6H-pyridazin-1-yl]-propionamide], for which the “SC1.5 average (concentration of activator that produced a 50% increase in the activity of GK)” value amounted to 6.893 µM.

On to `CC(C)(O)Cn1ccc(NC(=O)[C@H](CC2CCCCC2)n2ncc(Oc3c(F)cccc3F)cc2=O)n1` [Example 51A, (S)-3-Cyclohexyl-2-[4-(2,6-difluoro-phenoxy)-6-oxo-6H-pyridazin-1-yl]-N-[1-(2-hydroxy-2-methyl-propyl)-1H-pyrazol-3-yl]-propionamide], for which the “SC1.5 average (concentration of activator that produced a 50% increase in the activity of GK)” value turned out to be 0.038 µM.

In the case of `CC(C)(O)Cn1ccc(NC(=O)C(CC2CCCC2)n2ncc(Cc3cccc(C(F)(F)F)c3)cc2=O)n1` (stereo not shown) [Example 47, 3-Cyclopentyl-N-[1-(2-hydroxy-2-methyl-propyl)-1H-pyrazol-3-yl]-2-[6-oxo-4-(3-trifluoromethyl-benzyl)-6H-pyridazin-1-yl]-propionamide], the “SC1.5 average (concentration of activator that produced a 50% increase in the activity of GK)” value was found to be 1.366 µM.

Take `CC(C)CC(C(=O)Nc1ccn(CC(C)(C)O)n1)n1ncc(Oc2c(F)cccc2F)cc1=O` (stereo not shown) [Example 42, 2-[4-(2,6-Difluoro-phenoxy)-6-oxo-6H-pyridazin-1-yl]-4-methyl-pentanoic acid [1-(2-hydroxy-2-methyl-propyl)-1H-pyrazol-3-yl]-amide]: the “SC1.5 average (concentration of activator that produced a 50% increase in the activity of GK)” value was determined as 0.349 µM.

`CC(C)(O)Cn1ccc(NC(=O)C(CC2CCCC2)n2ncc(Oc3ccccc3N3CCOCC3)cc2=O)n1` (stereo not shown) [Example 34, 3-Cyclopentyl-N-[1-(2-hydroxy-2-methyl-propyl)-1H-pyrazol-3-yl]-2-[4-(2-morpholin-4-yl-phenoxy)-6-oxo-6H-pyridazin-1-yl]-propionamide]: the “SC1.5 average (concentration of activator that produced a 50% increase in the activity of GK)” value came out at 1.72 µM.

Turning to `O=C(Nc1ccn(C[C@@H](O)CO)n1)C(CC1CCCC1)n1ncc(Oc2ccccc2Cl)cc1=O` (stereo partly drawn) [Example 128, 2-[4-(2-Chloro-phenoxy)-6-oxo-6H-pyridazin-1-yl]-3-cyclopentyl-N-[1-((R)-2,3-dihydroxy-propyl)-1H-pyrazol-3-yl]-propionamide], the “SC1.5 average (concentration of activator that produced a 50% increase in the activity of GK)” value is 0.093 µM.

As to `CC(C)(O)Cn1ccc(NC(=O)C(CC2CCCC2)n2ncc([S+]([O-])c3ccccc3)cc2=O)n1` (stereo not shown) [Example 124, 2-(4-Benzenesulfinyl-6-oxo-6H-pyridazin-1-yl)-3-cyclopentyl-N-[1-(2-hydroxy-2-methyl-propyl)-1H-pyrazol-3-yl]-propionamide], the “SC1.5 average (concentration of activator that produced a 50% increase in the activity of GK)” value was 2.461 µM.
